In patent publication US20240002388A1, “PYRIMIDINONE COMPOUNDS AND USES THEREOF” (HUTCHISON MEDIPHARMA LIMITED, priority 2020, published 2024):

Test system: L929 cell line (mouse fibroblastoma cell line)
Assay: L929 cell viability assay (mTNF-α + Z-VAD-FMK induced necroptosis)
Format: cell-based
Settings: Mus musculus, L929, 20 h, L929 cells, mTNF-α 0.1 μg/mL + Z-VAD-FMK 5 μM, CellTiter-Glo
Method: L929 cell line (mouse fibroblastoma cell line): purchased from ATCC (American Type Culture Collection) Cell Bank, cultured in 5% CO2, 37° C. incubator, and MEM medium which contains L-Glutamine, with 10% FBS was used. • MEM medium: GIBCO, Cat #11095080; • Fetal bovine serum (FBS): GIBCO, Cat #10099-141C; • Dimethyl sulfoxide (DMSO): Sigma, Cat #D2650; • 0.25% Trypsin-EDTA: GIBCO, Cat #25200072; • Recombinant Mouse TNF-alpha Protein (mTNF-α): R&D system, Cat #410-MT-050; • Pan-Caspase inhibitor (Z-VAD-FMK): Selleckchem, Cat #S7023; • CellTiter-Glo 2.0 Cell Viability Assay kit: Promega, Cat #G9242; • Microwell plate reader: Envision, Perkin Elmer; • 96-well plate: Corning, Cat #3917.
The L929 cells at the logarithmic phase were taken out, and the supernatant was discarded. After trypsinization and cell shedding, 10% FBS-containing medium was added for neutralization, and the supernatant was discarded after centrifugation. The cells were re-suspended using 10% FBS-containing medium, adjusted to 7×10^4 cells/ml, added to 96-well microplate at 70 μL/well, i.e., 4.9×10^3 cells/well. Then the plate was incubated in a 5% CO2, 37° C. cell incubator overnight.
After incubating overnight, the 96-well plate was taken out, the medium was discarded, and the plate was washed with 1% FBS-containing MEM medium. Then 1% FBS-containing MEM medium was added at 70 μL/well, and the plate was cultured in a 5% CO2, 37° C. cell incubator. After incubating for 1 hour, the test compound was diluted to the corresponding concentrations using DMSO with 3-fold serial dilution, then the corresponding concentration of DMSO diluted solution was diluted into 1% FBS-containing MEM medium, and 10 μL/well of the diluted test compound with different concentrations (final concentrations of test compound were 10, 3.33, 1.11, 0.37, 0.12, 0.04, 0.014 and 0.005 μM, while final concentration of DMSO was 0.3%) or 10 μL/well control solution (3% DMSO) were added to the cell culture system respectively, with the total volume being 80 μL/well. Then 10 μL of Z-VAD-FMK solution diluted with 1% FBS-containing MEM medium (final concentration of 5 μM) or 10 μL of control solution (2.5% DMSO) was added to each well, with the total volume being 90 μL/well. The plate was incubated in a 5% CO2, 37° C. cell culture incubator for 1 hour.
After incubating for 1 hour, 10 μL of recombinant mouse TNF-α protein solution diluted with 1% FBS-containing MEM medium (final concentration of 0.1 μg/mL) or 10 μL control solution (1% FBS-containing MEM medium) was added to each well. The plate was incubated in a 5% CO2, 37° C. cell culture incubator for 20 hours.
The cell culture plate was taken out from the incubator, and left to stand at room temperature for 30 minutes. Meanwhile, CellTiter-Glo viability assay kit was put from freezer to room temperature, and 50 μL of CellTiter-Glo reagent was added to all wells, the plate was shaken for 1 minutes, protected from light at room temperature for 10 minutes then read the plate on Envision to get the luminescence signal.
The 96-well plate in the dark was taken out, and the chemiluminescence was determined using the Envision microwell plate reader as the signal value of each well.
The mean signal value of the wells of the mixed solution of recombinant mouse TNF-alpha protein (final concentration of 0.1 μg/mL) and Pan-Caspase inhibitor (final concentration of 5 μM) was used as the lower value, and the mean signal value of the wells without stimulation was used as the upper value. According to the signal value of each well, the inhibition rate of each concentration of every compound was calculated, and the IC50 value of compound was obtained by Model 205 in XL-Fit 5.3 software (ID Business Solutions Limited).
Inhibition rate %=[(Luminescence readout of treated compound−Luminescence readout of positive control)/(Luminescence readout of negative control−Luminescence readout of positive control)]×100%, wherein

Row | SMILES | IC50 [nM]
1 | CC(C)n1ncc2cnc(C(=O)NC3(c4ccc(-c5cncn(C6CCOC6)c5=O)cc4)CC3)nc21 (stereo in doubt) [Compound 81, (S)-1-i-propyl-N-(1-(4-(6-oxo-1-(tetrahydrofuran-3-yl)-1,6-dihydropyrimidin-5-yl)phenyl)cyclopropyl)-1H-pyrazolo[3,4-d]pyrimidine-6-carboxamide] | 258
2 | Cn1cncc(-c2ccc(C3(NC(=O)c4cc(Cc5ccccc5)on4)CC3)cc2)c1=O [Compound 5] | 2500
3 | Cn1cncc(-c2ccc(C3(NC(=O)c4ncc(Cc5ccccc5)o4)CC3)cc2)c1=O [Compound 10] | 676
4 | Cn1cncc(-c2ccc(C3(NC(=O)c4nnc(Cc5ccccc5)o4)CC3)cc2)c1=O [Compound 11] | 9120
5 | CC(C)n1ncc2cnc(C(=O)NC3(c4ccc(-c5cncn([C@@H](C)C(F)(F)F)c5=O)cc4)CC3)nc21 [Compound 40] | 109
6 | CC(C)n1cncc(-c2ccc(C3(NC(=O)c4ncc5cnn(C(C)C)c5n4)CC3)c(F)c2F)c1=O [Compound 93] | 148
7 | C[C@H](n1cncc(-c2ccc(C3(NC(=O)c4ncc5cnn(CC6CC6)c5n4)CC3)cc2)c1=O)C(F)(F)F [Compound 68] | 32
8 | C[C@@H](n1cncc(-c2ccc(C3(NC(=O)c4ncc5cnn(CC6CC6)c5n4)CC3)cc2)c1=O)C(F)(F)F [Compound 70] | 12
9 | CC(C)n1ncc2cnc(C(=O)NC3(c4ccc(-c5cncn(CC6CC6)c5=O)c(F)c4)CC3)nc21 [Compound 75] | 41
10 | CC(C)n1ncc2cnc(C(=O)NC3(c4ccc(-c5cncn(C)c5=O)cc4)CC3)nc21 [Compound 1, 1-isopropyl-N-(1-(4-(1-methyl-6-oxo-1,6-dihydropyrimidin-5-yl)phenyl)cyclopropyl)-1H-pyrazolo[3,4-d]pyrimidine-6-carboxamide] | 1250
11 | Cn1cncc(-c2ccc(C3(NC(=O)c4nnc(Cc5ccccc5)[nH]4)CC3)cc2)c1=O [Compound 3] | 4280
12 | CC(C)Cn1cncc(-c2ccc(C3(NC(=O)c4ncc5cnn(C(C)C)c5n4)CC3)cc2)c1=O [Compound 45] | 58
13 | CC(C)n1ncc2cnc(C(=O)NC3(c4ccc(-c5cncn(C)c5=O)cc4F)CC3)nc21 [Compound 26] | 846
14 | CC(C)n1ncc2cnc(C(=O)NC3(c4ccc(-c5cncn([C@@H](C)C6CC6)c5=O)cc4)CC3)nc21 [Compound 85, (S)—N-(1-(4-(1-(1-cyclopropylethyl)-6-oxo-1,6-dihydropyrimidin-5-yl)phenyl)cyclopropyl)-1-i-propyl-1H-pyrazolo[3,4-d]pyrimidine-6-carboxamide] | 13
15 | Cn1cncc(-c2ccc(C3(NC(=O)c4ncc5cnn(-c6ccccc6)c5n4)CC3)cc2)c1=O [Compound 4] | 721
16 | CC(C)n1ncc2cnc(C(=O)NC3(c4ccc(-c5cncn(CC6CC6)c5=O)c(F)c4F)CC3)nc21 [Compound 95] | 145
17 | CC[C@H](C)n1cncc(-c2ccc(C3(NC(=O)c4ncc5cnn(C(C)C)c5n4)CC3)cc2)c1=O [Compound 43] | 16
18 | CC(C)n1cncc(-c2ccc(C3(NC(=O)c4ncc5cnn(CC6CC6)c5n4)CC3)c(F)c2)c1=O [Compound 72] | 16
19 | CC(C)n1ncc2cnc(C(=O)NC3(c4ccc(-c5cncn(C6COC6)c5=O)cc4)CC3)nc21 [Compound 41] | 1970
20 | CC(C)Cc1nc(C(=O)NC2(c3ccc(-c4cncn(C)c4=O)cc3)CC2)ncc1Cl [Compound 6] | 299
21 | CC(C)n1ncc2cnc(C(=O)NC3(c4ccc(-c5cncn([C@@H](C)C(F)(F)F)c5=O)cc4F)CC3)nc21 (stereo in doubt) [Compound 47] | 24

Row | SMILES | IC50 [nM]
22 | CC(C)n1ncc2cnc(C(=O)NC3(c4ccc(-c5cncn(C6CC6)c5=O)cc4)CC3)nc21 [Compound 12] | 1020
23 | CC(C)n1ncc2cnc(C(=O)NC3(c4ccc(-c5cncn(CC6CCC6)c5=O)cc4)CC3)nc21 [Compound 66] | 53
24 | CC(C)n1ncc2cnc(C(=O)NC3(c4ccc(-c5cncn(CC6(C)CC6)c5=O)cc4)CC3)nc21 [Compound 86] | 19
25 | CC(C)n1ncc2cnc(C(=O)NC3(c4ccc(-c5cncn(C)c5=O)cc4)CC3)cc21 [Compound 28, 1-isopropyl-N-(1-(4-(1-methyl-6-oxo-1,6-dihydropyrimidin-5-yl)phenyl)cyclopropyl)-1H-pyrazolo[4,3-c]pyridine-6-carboxamide] | 5700
26 | CC(C)n1ncc2cnc(C(=O)NC3(c4ccc(-c5cncn(CC6CC6)c5=O)cc4)CC3)nc21 [Compound 36] | 84
27 | CC(C)Cc1nc(C(=O)NC2(c3ccc(-c4cncn(C(C)C)c4=O)cc3)CC2)ncc1Cl [Compound 22] | 28
28 | CC(C)n1cncc(-c2cc(F)c(C3(NC(=O)c4ncc5cnn(C(C)C)c5n4)CC3)c(F)c2)c1=O [Compound 92] | 3130
29 | CC(C)n1ncc2cnc(C(=O)NC3(c4ccc(-c5cncn([C@H](C)C(F)(F)F)c5=O)cc4)CC3)nc21 [Compound 39] | 59
30 | CC(C)n1cncc(-c2ccc(C3(NC(=O)c4ncc5cnn(-c6ccccc6)c5n4)CC3)cc2)c1=O [Compound 19] | 61
31 | CC(C)n1ncc2cnc(C(=O)NC3(c4ccc(-c5cncn(CC(F)(F)F)c5=O)cc4)CC3)nc21 [Compound 38] | 152
32 | CC(C)n1cncc(-c2ccc(C3(NC(=O)c4ncn(Cc5ccccc5)n4)CC3)cc2)c1=O [Compound 17] | 25
33 | CC(C)n1ncc2cnc(C(=O)NC3(c4ccc(-c5cncn([C@@H]6C[C@@H]6F)c5=O)cc4)CC3)nc21 [Compound 69] | 98
34 | O=C(NC1(c2ccc(-c3cncn(CC4CC4)c3=O)cc2)CC1)c1ncc2cnn(CC3CC3)c2n1 [Compound 64] | 79
35 | C[C@H](n1cncc(-c2ccc(C3(NC(=O)c4ncc5cnn(CC6CC6)c5n4)CC3)c(F)c2)c1=O)C(F)(F)F [Compound 71] | 20
36 | CC(C)n1ncc2cnc(C(=O)NC3(c4ccc(-c5cncn(C6(C)CC6)c5=O)cc4)CC3)nc21 [Compound 78] | 44
37 | C[C@H](c1ccccc1)n1cnc(C(=O)NC2(c3ccc(-c4cncn(C)c4=O)cc3)CC2)n1 [Compound 55, (R)—N-(1-(4-(1-methyl-6-oxo-1,6-dihydropyrimidin-5-yl)phenyl)cyclopropyl)-1-(1-phenylethyl)-1H-1,2,4-triazole-3-carboxamide] | 259
38 | CC(C#N)n1cncc(-c2ccc(C3(NC(=O)c4ncc5cnn(C(C)C)c5n4)CC3)cc2)c1=O (stereo in doubt) [Compound 83, (S)—N-(1-(4-(1-(1-cyanoethyl)-6-oxo-1,6-dihydropyrimidin-5-yl)phenyl)cyclopropyl)-1-i-propyl-1H-pyrazolo[3,4-d]pyrimidine-6-carboxamide] | 199
39 | CC(C)n1cncc(-c2ccc(C3(NC(=O)c4ncc5cnn(C(C)C)c5n4)CC3)cc2)c1=O [Compound 29, 1-isopropyl-N-(1-(4-(1-isopropyl-6-oxo-1,6-dihydropyrimidin-5-yl)phenyl)cyclopropyl)-1H-pyrazolo[3,4-d]pyrimidine-6-carboxamide] | 34
40 | CC(C)n1ncc2cnc(C(=O)NC3(c4ccc(-c5cncn(C)c5=O)c(F)c4)CC3)nc21 [Compound 23, N-(1-(3-fluoro-4-(1-methyl-6-oxo-1,6-dihydropyrimidin-5-yl)phenyl)cyclopropyl)-1-isopropyl-1H-pyrazolo[3,4-d]pyrimidine-6-carboxamide] | 2700
41 | CC(C)n1cncc(-c2ccc(C3(NC(=O)c4ncc5cnn(CC6CC6)c5n4)CC3)cc2)c1=O [Compound 61] | 48
